“And” between values parts separate entries of the source, which are not always exact repeats. Identical values can stand only once. “Also recorded” adds a separate entry of the source. Like-named read-outs stand apart in the source and are kept apart here.
Key:
[1] = test system: Puccinia graminis fsp avenae; type: in vivo
[2] = test system: Puccinia sorghi; experiment: Infection by corn rust; type: in vivo
[3] = test system: Uromyces phaseoli; experiment: Bean rust lesions on unifoliolate leaves of Pinto bean sprayed before or after inoculation; type: in vivo
[4] = test system: Erysiphe graminis; experiment: Wheat powdery mildew infection, colonies per plant
Experimental: With wheat powdery mildew (E. graminis) 10-day-old seedlings were sprayed with solutions of DFMA or DFMO from 0.01 to 5.0 mM before and after inoculation of the plants with conidia. Inoculation occurred naturally in the greenhouse by distributing infected plants among the experimental plants for 24 hours. Infection was evaluated 10 days after inoculation by counting mildew colonies.

[5] = test system: Erysiphe polygoni; experiment: Infection by bean powdery mildew; type: in vivo
[6] = test system: Colletotrichum lagenarium; experiment: Infection of National Pickling cucumber plants by cucumber anthracnose
[7] = test system: Verticillium dahliae; experiment: Radial mycelial growth of Verticillium dahliae in vitro; type: cell-based; conditions: for minimal effective concentration: Verticillium dahliae, in vitro
[8] = test system: bean plants (Phaseolus vulgaris cv Pinto); experiment: Effect of sprays on growth and appearance of bean plants; type: in vivo
Experimental: Unifoliolate leaves of 10-day-old bean seedlings were sprayed (400 ul per leaf) with DFMO or alpha-difluoromethylarginine (DFMA) at concentrations of 0.01-5 mM, before or after inoculation with uredospores of the bean rust, Uromyces phaseoli, Race 0. The inhibitor solutions were prepared in 0.01% Tween 20, with the pH adjusted to 7.0. Control plants without inhibitor were sprayed similarly and were allowed to dry before inoculation with the pathogen. After inoculation with rust uredospores (25 mg/100 ml of 0.01% Tween 20) all plants were placed in dew chambers (100% relative humidity) for 16 hours at 19° C. in total darkness. After exposures to inhibitors and uredospores, all plants were returned to the greenhouse and arranged randomly. Disease severity was evaluated 7 days after inoculation by counting foliar lesions. In control plants and those treated with low concentrations of DFMO, uredospores were collected randomly from each treatment to determine percent germination and pathogenicity. For determination of germination, spores were dusted onto Petri plates containing 10 mM 2-(N-morpholino)ethanesulfonic acid (Mes) at pH 7.0, 3 mM CaCl2, 2 mM MgSO4, and 1% purified agar, and incubated for 3 hr at 19° C. in the light.

[9] = test system: Botrytis sp., B. cinerea, Rhizoctonia solani, Monilinia fructicola; conditions: Botrytis sp., B. cinerea, Rhizoctonia solani, Monilinia fructicola; cited from earlier work
[10] = test system: Verticillium dahliae; experiment: Verticillium wilt symptoms in Bonny Best tomato after foliar spray; type: in vivo
[11] = test system: PA titers of bean leaves; experiment: Polyamine titers in leaves of sprayed bean plants; type: in vivo, Phaseolus vulgaris
Experimental: PA analysis was performed on leaf samples collected from inhibitor-sprayed bean plants. Leaf samples were ground in prechilled mortars with 10% (w/v) HClO4 at a ratio of 200 mg fresh weight leaf per ml HClO4. Homogenates were centrifuged at 26,00 g for 20 minutes at 4° C. The clear supernatant fractions were used for dansylation according to a procedure previously described. Briefly, 0.4 ml of freshly prepared dansyl (Diaminonaphthylsulfonyl)-C1 (Sigma), 5 mg/ml in acetone, and 0.2 ml of saturated Na2 CO3 were added to 0.2 ml of the supernatant fraction. The dansylated PA were extracted with 0.25 ml benzene and the clear benzene layer was used for PA determinations by TLC on LK6D high resolution silica gel plates (Whatman). After development in chloroform:triethylamine (25:2 v/v) for about 1 hour and location by fluorescence under a UV lamp, the dansylpolyamine bands were scraped off, eluted in 4 ml of ethyl acetate and quantified with an Aminco-Bowman fluorimeter.
The effect of DFMO and DFMA sprays (0.01, 0.1, and 1.0 mM) on PA titers was also examined. Unifoliolate leaves were sprayed in the usual way and examined 1 and 3 days later, while the first trifolioloate leaves, unexpanded ata the time of spray and themselves unsprayed, were examined 8 days later.

[12] = test system: bean rust uredospores; experiment: Germination and differentiation of bean rust uredospores in agar; type: cell-based, Uromyces phaseoli; conditions: for inhibition at 100 µM / inhibition at 500 µM / inhibition at 1000 µM / inhibition at 5000 µM: Uromyces phaseoli
[13] = postinoculation exposure, inhibitor 0.01 mM
[14] = postinoculation exposure, inhibitor 0.025 mM
[15] = postinoculation exposure, inhibitor 0.05 mM
[16] = postinoculation exposure, inhibitor 0.075 mM
[17] = postinoculation exposure, inhibitor 0.10 mM
[18] = postinoculation exposure, inhibitor 0.25 mM
[19] = postinoculation exposure, inhibitor 0.50 mM
[20] = postinoculation exposure, inhibitor 1.0 mM
[21] = postinoculation exposure, inhibitor 5.0 mM
[22] = preinoculation exposure, inhibitor 0.01 mM
[23] = preinoculation exposure, inhibitor 0.025 mM
[24] = preinoculation exposure, inhibitor 0.05 mM
[25] = preinoculation exposure, inhibitor 0.075 mM
[26] = preinoculation exposure, inhibitor 0.10 mM
[27] = preinoculation exposure, inhibitor 0.25 mM
[28] = preinoculation exposure, inhibitor 0.50 mM
[29] = preinoculation exposure, inhibitor 1.0 mM
[30] = preinoculation exposure, inhibitor 5.0 mM

NCCCC(N)(C(=O)O)C(F)F (racemic) [DFMO, DL-alpha-difluorimethylornithine]
Percent control ([1]; 0.01 mM): 50.7% and 50%
Percent control ([1]; 0.025 mM): 63.2%
Percent control ([1]; 0.065 mM): 65.5%
Percent control ([1]; 0.10 mM): 71.0%
Percent control ([1]; 0.13 mM): 67.9%
Percent control ([1]; 0.16 mM): 77.3%
Percent control ([2]; 0.01 mM): 43.5%
Percent control ([2]; 0.025 mM): 38.4%
Percent control ([2]; 0.065 mM): 37.4%
Percent control ([2]; 0.10 mM): 63.1%
Percent control ([2]; 0.13 mM): 67.7%
Percent control ([2]; 0.16 mM): 88.7% and ~90%
Percent control ([2]; 0.20 mM): 88.4%
Percent control ([2]; 1.00 mM): 94.9%
EC50 ([2]; Puccinia sorghi, read-out: concentration providing 50% protection against corn rust): < 100 µM
protection against infection ([3]; 400 ul of 0.25 mM applied to a single leaf): complete protection
disease symptoms / protection against bean rust ([3]; DFMO at 0.5 mM or higher, pre- and postinoculation, 400 ul per leaf): No disease symptoms could be detected; also recorded: complete protection
germination or pathogenicity of uredospores collected from treated plants ([3]; plants treated with low concentrations): no decrease in germination or pathogenicity
delay of uredial appearance ([3]; postinoculation exposure, lower concentrations, dose-dependent): 2 to 6 days
Lesions per cm^2 [3, 13]: 40 ± 5 per cm^2
Lesions per leaf [3, 13]: 1888 ± 249 per leaf
Lesions per cm^2 [3, 14]: 28 ± 2 per cm^2
Lesions per leaf [3, 14]: 1526 ± 160 per leaf
Lesions per cm^2 [3, 15]: 17 ± 2 per cm^2
Lesions per leaf [3, 15]: 1026 ± 131 per leaf
Lesions per cm^2 [3, 16]: 12 ± 1 per cm^2
Lesions per leaf [3, 16]: 669 ± 96 per leaf
Lesions per cm^2 [3, 17]: 5 ± 1 per cm^2
Lesions per leaf [3, 17]: 221 ± 39 per leaf
Lesions per cm^2 [3, 18]: 2 ± 1 per cm^2
Lesions per leaf [3, 18]: 73 ± 4 per leaf
Lesions per cm^2 [3, 19]: 0 per cm^2
Lesions per leaf [3, 19]: 0 per leaf
Lesions per cm^2 [3, 20]: 0 per cm^2
Lesions per leaf [3, 20]: 0 per leaf
Lesions per cm^2 [3, 21]: 0 per cm^2
Lesions per leaf [3, 21]: 0 per leaf
Lesions per cm^2 [3, 22]: 47 ± 6 per cm^2
Lesions per leaf [3, 22]: 2677 ± 397 per leaf
Lesions per cm^2 [3, 23]: 34 ± 1 per cm^2
Lesions per leaf [3, 23]: 2071 ± 103 per leaf
Lesions per cm^2 [3, 24]: 29 ± 4 per cm^2
Lesions per leaf [3, 24]: 1712 ± 375 per leaf
Lesions per cm^2 [3, 25]: 19 ± 2 per cm^2
Lesions per leaf [3, 25]: 1177 ± 159 per leaf
Lesions per cm^2 [3, 26]: 14 ± 2 per cm^2
Lesions per leaf [3, 26]: 659 ± 104 per leaf
Lesions per cm^2 [3, 27]: 2 ± 1 per cm^2
Lesions per leaf [3, 27]: 85 ± 20 per leaf
Lesions per cm^2 [3, 28]: 0 per cm^2
Lesions per leaf [3, 28]: 0 per leaf
Lesions per cm^2 [3, 29]: 0 per cm^2
Lesions per leaf [3, 29]: 0 per leaf
Lesions per cm^2 [3, 30]: 0 per cm^2
Lesions per leaf [3, 30]: 0 per leaf
% control ([4]; post-inoculation, 0.01 mM): 19%
Colonies/plant ([4]; post-inoculation, 0.01 mM): 30 Colonies/plant
% control ([4]; post-inoculation, 0.025 mM): 30%
Colonies/plant ([4]; post-inoculation, 0.025 mM): 26 Colonies/plant
% control ([4]; post-inoculation, 0.065 mM): 46%
Colonies/plant ([4]; post-inoculation, 0.065 mM): 20 Colonies/plant
% control ([4]; post-inoculation, 0.10 mM): 68%
Colonies/plant ([4]; post-inoculation, 0.10 mM): 12 Colonies/plant
% control ([4]; post-inoculation, 0.20 mM): 68%
Colonies/plant ([4]; post-inoculation, 0.20 mM): 12 Colonies/plant
% control ([4]; post-inoculation, 1.00 mM): 76%
Colonies/plant ([4]; post-inoculation, 1.00 mM): 9 Colonies/plant
% control ([4]; post-inoculation, 5.00 mM): 89%
Colonies/plant ([4]; post-inoculation, 5.00 mM): 4 Colonies/plant
% control ([4]; pre-inoculation, 0.01 mM): 41%
Colonies/plant ([4]; pre-inoculation, 0.01 mM): 22 Colonies/plant
% control ([4]; pre-inoculation, 0.025 mM): 35%
Colonies/plant ([4]; pre-inoculation, 0.025 mM): 24 Colonies/plant
% control ([4]; pre-inoculation, 0.065 mM): 46%
Colonies/plant ([4]; pre-inoculation, 0.065 mM): 20 Colonies/plant
% control ([4]; pre-inoculation, 0.10 mM): 51%
Colonies/plant ([4]; pre-inoculation, 0.10 mM): 18 Colonies/plant
% control ([4]; pre-inoculation, 0.20 mM): 46%
Colonies/plant ([4]; pre-inoculation, 0.20 mM): 20 Colonies/plant
% control ([4]; pre-inoculation, 1.00 mM): 66%
Colonies/plant ([4]; pre-inoculation, 1.00 mM): 13 Colonies/plant
% control ([4]; pre-inoculation, 5.00 mM): 95%
Colonies/plant ([4]; pre-inoculation, 5.00 mM): 2 Colonies/plant
Percent control ([5]; 5 mM): 45%
Percent control ([5]; 10 mM): 52% and ~50%
Lesions per plant ([6]; 1.0 mM): 69 per plant
Percent control ([6]; 1.0 mM): 14%
Lesions per plant ([6]; 5.0 mM): 69 per plant
Percent control ([6]; 5.0 mM): 14%
Lesions per plant ([6]; 10.0 mM): 70 per plant
Percent control ([6]; 10.0 mM): 14%
minimal effective concentration ([7]; 192 h, 8 days, read-out: concentration reducing radial (mycelial) growth): ≥ 5 µM
minimal effective concentration ([7]; read-out: concentration inhibiting pigment synthesis): ≥ 500 µM
effect of 1 mM putrescine on DFMO-induced growth inhibition ([7]; putrescine added to culture medium): reversed
appearance, growth and development of sprayed bean plants ([8]; all concentrations, as high as 5 mM): looked healthy, exhibiting no malformation or reduction in growth rate; also recorded: no apparent effect on growth and development of the plant
growth of the bean plants ([8]; sprays 0.01, 0.1 and 1.0 mM): no effect
mycelial growth in vitro [9]: inhibited mycelial growth
symptoms of Verticillium wilt compared to controls ([10]; 2.5 mM and 10 mM, 24 hours after inoculation): suppressed symptoms
most effective time for application ([10]; 5 mM DFMO, symptoms 21 days after inoculation): 24-48 hours post-inoculation
delay of onset of symptom expression ([10]; increasing concentration from 2.5 to 10 mM): up to 7 days
wilt symptoms ([10]; spores applied to the soil, DFMO applied to the leaves): greatly suppressed
Put and Spd titers ([11]; highest concentration of DFMO): increased
PA levels in treated leaves ([11]; sprays 0.01, 0.1 and 1.0 mM, 1, 3 and 8 days later): no significant reductions
Differentiation % ([12]; 0.1 mM): 46%
Germination % ([12]; 0.1 mM): 32%
Differentiation % ([12]; 0.5 mM): 35%
Germination % ([12]; 0.5 mM): 32%
Differentiation % ([12]; 1.0 mM): 30%
Germination % ([12]; 1.0 mM): 32%
Differentiation % ([12]; 5.0 mM): 19%
Germination % ([12]; 5.0 mM): 22%
inhibition at 100 µM ([12]; 0.1 mM, read-out: Differentiation % Inhibiton): 22%
inhibition at 100 µM ([12]; 0.1 mM, read-out: Germination % Inhibition): 24%
inhibition at 500 µM ([12]; 0.5 mM, read-out: Differentiation % Inhibiton): 41%
inhibition at 500 µM ([12]; 0.5 mM, read-out: Germination % Inhibition): 24%
inhibition at 1000 µM ([12]; 1.0 mM, read-out: Differentiation % Inhibiton): 49%
inhibition at 1000 µM ([12]; 1.0 mM, read-out: Germination % Inhibition): 24%
inhibition at 5000 µM ([12]; 5.0 mM, read-out: Differentiation % Inhibiton): 68%
inhibition at 5000 µM ([12]; 5.0 mM, read-out: Germination % Inhibition): 48%

From patent US4818770A, “Prevention of a plant disease by specific inhibition of fungal polyamine biosynthesis” (priority 1986, dated 1989)
